Test results: ChEMBL document CHEMBL2062394, “Azide-alkyne cycloaddition en route to novel 1H-1,2,3-triazole tethered isatin conjugates with in vitro cytotoxic evaluation” (Eur J Med Chem, 2012)

How the values were obtained:
THP-1 [1] = assay: Growth inhibition of human THP1 cells at 100 uM after 48 hrs by SRB assay; assay type: functional; conditions: THP-1, 48 h, read-out: GI
Caco-2 [2] = assay: Growth inhibition of human Caco2 cells after 48 hrs by SRB assay; assay type: functional, cell-based; conditions: for IC50: Caco-2, 48 h
THP-1 [3] = assay: Growth inhibition of human THP1 cells at 10 uM after 48 hrs by SRB assay; assay type: functional; conditions: THP-1, 48 h, read-out: GI
THP-1 [4] = assay: Growth inhibition of human THP1 cells after 48 hrs by SRB assay; assay type: functional, cell-based; conditions: for IC50: THP-1, 48 h
Caco-2 [5] = assay: Growth inhibition of human Caco2 cells at 10 uM after 48 hrs by SRB assay; assay type: functional; conditions: Caco-2, 48 h, read-out: GI
A549 [6] = assay: Growth inhibition of human A549 cells at 100 uM after 48 hrs by SRB assay; assay type: functional; conditions: A549, 48 h, read-out: GI
Caco-2 [7] = assay: Growth inhibition of human Caco2 cells at 50 uM after 48 hrs by SRB assay; assay type: functional; conditions: Caco-2, 48 h, read-out: GI
Caco-2 [8] = assay: Growth inhibition of human Caco2 cells at 100 uM after 48 hrs by SRB assay; assay type: functional; conditions: Caco-2, 48 h, read-out: GI
PC-3 [9] = assay: Growth inhibition of human PC3 cells at 10 uM after 48 hrs by SRB assay; assay type: functional; conditions: PC-3, 48 h, read-out: GI
PC-3 [10] = assay: Growth inhibition of human PC3 cells at 100 uM after 48 hrs by SRB assay; assay type: functional; conditions: PC-3, 48 h, read-out: GI
A549 [11] = assay: Growth inhibition of human A549 cells at 50 uM after 48 hrs by SRB assay; assay type: functional; conditions: A549, 48 h, read-out: GI
A549 [12] = assay: Growth inhibition of human A549 cells after 48 hrs by SRB assay; assay type: functional, cell-based; conditions: for IC50: A549, 48 h
A549 [13] = assay: Growth inhibition of human A549 cells at 10 uM after 48 hrs by SRB assay; assay type: functional; conditions: A549, 48 h, read-out: GI
PC-3 [14] = assay: Growth inhibition of human PC3 cells after 48 hrs by SRB assay; assay type: functional, cell-based; conditions: for IC50: PC-3, 48 h
THP-1 [15] = assay: Growth inhibition of human THP1 cells at 50 uM after 48 hrs by SRB assay; assay type: functional; conditions: THP-1, 48 h, read-out: GI
PC-3 [16] = assay: Growth inhibition of human PC3 cells at 50 uM after 48 hrs by SRB assay; assay type: functional; conditions: PC-3, 48 h, read-out: GI

SMILES	IC50 (Caco-2 [2]) [µM]	IC50 (THP-1 [4]) [µM]	IC50 (A549 [12]) [µM]	IC50 (PC-3 [14]) [µM]	inhibition of growth at 100 µM (THP-1 [1]) [%]	growth inhibition (GI) (Caco-2 [2])	inhibition of growth at 10 µM (THP-1 [3]) [%]	growth inhibition (GI) (THP-1 [4])	inhibition of growth at 10 µM (Caco-2 [5]) [%]	inhibition of growth at 100 µM (A549 [6]) [%]	inhibition of growth at 50 µM (Caco-2 [7]) [%]	inhibition of growth at 100 µM (Caco-2 [8]) [%]	inhibition of growth at 10 µM (PC-3 [9]) [%]	inhibition of growth at 100 µM (PC-3 [10]) [%]	inhibition of growth at 50 µM (A549 [11]) [%]	growth inhibition (GI) (A549 [12])	inhibition of growth at 10 µM (A549 [13]) [%]	growth inhibition (GI) (PC-3 [14])	inhibition of growth at 50 µM (THP-1 [15]) [%]	inhibition of growth at 50 µM (PC-3 [16]) [%]
O=C1C(=O)N(CCn2cc(CN3C(=O)C(=O)c4cc(Br)ccc43)nn2)c2ccc(F)cc21	> 100	27.6	16.4	> 100	94	Dose-dependent effect	26	Dose-dependent effect	0	98	7	13	0	51	79	Dose-dependent effect	41	Dose-dependent effect	85	2
O=C1C(=O)N(CCn2cc(CN3C(=O)C(=O)c4cc(F)ccc43)nn2)c2ccccc21	> 100	39.9	38.9	30.1	100	Dose-dependent effect	10	Dose-dependent effect	0	99	1	22	20	100	97	Dose-dependent effect	11	Dose-dependent effect	96	98
O=C1C(=O)N(CCn2cc(CN3C(=O)C(=O)c4cc([N+](=O)[O-])ccc43)nn2)c2ccc(Cl)cc21	> 100	26	39.3	53.2	88	Dose-dependent effect	29	Dose-dependent effect	17	99	21	33	30	72	80	Dose-dependent effect	11	Dose-dependent effect	82	44
O=C1C(=O)N(CCn2cc(CN3C(=O)C(=O)c4cc([N+](=O)[O-])ccc43)nn2)c2ccc(F)cc21	> 100	86.2	93.2	95.2	90	Dose-dependent effect	2	Dose-dependent effect	0	64	0	0	2	33	22	Dose-dependent effect	7	Dose-dependent effect	14	11
O=C1C(=O)N(CCn2cc(CN3C(=O)C(=O)c4cc(F)ccc43)nn2)c2ccc(F)cc21	> 100	83.3	90.7	> 100	92	Dose-dependent effect	1	Dose-dependent effect	0	62	0	10	0	30	23	Dose-dependent effect	5	Dose-dependent effect	13	10

Now from value to compound, other results behind:

IC50 (Caco-2 [2]) [µM]	IC50 (THP-1 [4]) [µM]	IC50 (A549 [12]) [µM]	IC50 (PC-3 [14]) [µM]	SMILES	inhibition of growth at 100 µM (THP-1 [1]) [%]	growth inhibition (GI) (Caco-2 [2])	inhibition of growth at 10 µM (THP-1 [3]) [%]	growth inhibition (GI) (THP-1 [4])	inhibition of growth at 10 µM (Caco-2 [5]) [%]	inhibition of growth at 100 µM (A549 [6]) [%]	inhibition of growth at 50 µM (Caco-2 [7]) [%]	inhibition of growth at 100 µM (Caco-2 [8]) [%]	inhibition of growth at 10 µM (PC-3 [9]) [%]	inhibition of growth at 100 µM (PC-3 [10]) [%]	inhibition of growth at 50 µM (A549 [11]) [%]	growth inhibition (GI) (A549 [12])	inhibition of growth at 10 µM (A549 [13]) [%]	growth inhibition (GI) (PC-3 [14])	inhibition of growth at 50 µM (THP-1 [15]) [%]	inhibition of growth at 50 µM (PC-3 [16]) [%]
> 100	36.3	2.65	> 100	O=C1C(=O)N(CCn2cc(CN3C(=O)C(=O)c4cc(Cl)ccc43)nn2)c2ccc(F)cc21	92	Dose-dependent effect	20	Dose-dependent effect	2	97	12	30	0	9	73	Dose-dependent effect	64	Dose-dependent effect	70	4
> 100	38.8	49.9	85.2	Cc1ccc2c(c1)C(=O)C(=O)N2Cc1cn(CCN2C(=O)C(=O)c3cc(F)ccc32)nn1	89	Dose-dependent effect	14	Dose-dependent effect	0	99	15	44	0	48	57	Dose-dependent effect	8	Dose-dependent effect	88	31
> 100	88.1	> 100	71.1	O=C1C(=O)N(CCn2cc(CN3C(=O)C(=O)c4ccccc43)nn2)c2ccc(F)cc21	90	Dose-dependent effect	8	Dose-dependent effect	0	32	1	10	0	82	17	Dose-dependent effect	6	Dose-dependent effect	15	32
> 100	42.8	39.2	30.7	O=C1C(=O)N(CCn2cc(CN3C(=O)C(=O)c4cc([N+](=O)[O-])ccc43)nn2)c2ccccc21	100	Dose-dependent effect	11	Dose-dependent effect	0	98	4	18	24	99	96	Dose-dependent effect	13	Dose-dependent effect	97	97
